Test results published in US11926634B2, “Processes for the preparation of selective estrogen receptor degraders” (Eli Lilly and Company, priority 2022, dated 2024).

Biological target: T1, hERα (Homo sapiens, UniProt P03372)
T1 construct: ERα degradation High Content Imaging assays in MCF7 ESR1 Wild Type cells; endogenous in cells; host or cells: MCF7 (ESR1 wild type)
T1 sequence (P03372 1-595): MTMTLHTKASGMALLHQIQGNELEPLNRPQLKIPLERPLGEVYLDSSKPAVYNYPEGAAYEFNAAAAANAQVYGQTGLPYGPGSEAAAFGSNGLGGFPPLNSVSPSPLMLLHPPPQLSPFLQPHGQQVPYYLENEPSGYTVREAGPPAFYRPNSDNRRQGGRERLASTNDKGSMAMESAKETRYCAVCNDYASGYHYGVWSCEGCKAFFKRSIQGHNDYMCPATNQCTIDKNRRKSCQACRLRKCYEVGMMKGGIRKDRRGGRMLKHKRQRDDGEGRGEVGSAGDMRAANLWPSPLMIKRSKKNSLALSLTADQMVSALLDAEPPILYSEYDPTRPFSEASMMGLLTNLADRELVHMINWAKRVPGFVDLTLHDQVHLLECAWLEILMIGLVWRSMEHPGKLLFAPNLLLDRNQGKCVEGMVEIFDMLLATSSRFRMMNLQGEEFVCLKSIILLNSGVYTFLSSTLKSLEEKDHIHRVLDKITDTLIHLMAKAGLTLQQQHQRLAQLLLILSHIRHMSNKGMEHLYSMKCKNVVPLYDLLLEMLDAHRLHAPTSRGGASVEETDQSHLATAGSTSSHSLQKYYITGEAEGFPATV
Test: ERα degradation high content imaging assay in MCF7 cells
Format: cell-based
Conditions: MCF7 ESR1 Wild Type cells; output % estrogen receptor positive cells; read-out: Relative IC50 (μM), hERα Degradation Cell Assay in MCF7 Cells
Description: Cells were fixed by adding 14% paraformaldehyde (10 μL) for 30 min at RT. The cells were washed once with PBS (20 μL) and incubated with PBS (20 μL per well) containing 0.5% (v/v) TWEEN® 20 for 1 h. Cells were washed with PBS containing 0.05% TWEEN® 20 (2×) and blocked with 3% BSA in PBS containing 0.05% TWEEN® and 0.1% TRITON™ X-100 (20 μL/well) for 1 h at RT. A 1:500 dilution of Primary antibody (20 μL) (ERα (Clone SP1) monoclonal rabbit antibody #RM-9101-S, Thermo Scientific) in 1% BSA in PBS containing 0.05% TWEEN® 20 was added, the plates were sealed and incubated overnight at 4° C. The following day the cells were washed with PBS containing 0.05% TWEEN® 20 (2×) and incubated with secondary antibody ([…]) (1:1000 dilution, Goat anti-rabbit IgM ALEXA FLUOR™ 488) in PBS 1% BSA for 105 min at RT. After incubation plates were washed with PBS (2×20 μL), and PBS (20 μL) containing RNase (Sigma) (50 μg/mL) and 1:1000 propidium iodide dilution was added per well. Plates were sealed and incubated 1 h at RT (preserved from light). The plates were scanned with ACUMEN EXPLORER™ [Laser-scanning fluorescence microplate cytometer manufactured by TTP LABTECH LTD] to measure ERa. Image analysis was based on cellular fluorescent signals for identifying positive cells. Estrogen receptor positive cells were identified by mean intensity. Total intensity at 575-640 nm from propidium iodide/DNA was used to identify individual cells. Assay output was % estrogen receptor positive cells. The IC50 was determine by curve fitting to a four-parameter logistic for each output using GENE DATA™. Raw data (FLU) were plotted as nonlinear regression through […]© tool. Data was analyzed using a 4-parameter nonlinear logistic equation (four-parameter logistic concentration-response curve): Y=bot+[(top-bot)/1+(x/IC50) slope] where Y=% inhibition, x=concentration yielding y % inhibition, Bottom=minimum value of y attained by curve, Top=maximum value of y attained by curve and Slope=steepness of curve at IC50. % Inh=[(median Max−x/median Max−median Min)]×100.

Row | Structure (SMILES) | DC50 [µM] | IC50 [µM]
1 | O=C(c1ccc(OCCN2CC(CF)C2)cc1)c1c(Cl)cnc2cc(O)ccc12 | 0.126 ± 0.0442 | –
2 | CCOC(COc1ccc(C2Oc3cc(C(F)(F)F)ccc3-c3cnc4cc(O)ccc4c32)cc1)OCC (stereo not shown) | > 2 | –
3 | Oc1ccc2c(C(O)c3ccc(OCCN4CC(CF)C4)cc3)c(-c3ccc(C(F)(F)F)cc3F)cnc2c1 (stereo not shown) | 0.278 ± 0.126 | –
4 | O=CCOc1ccc(C2Oc3cc(C(F)(F)F)ccc3-c3cnc4cc(O)ccc4c32)cc1 (stereo not shown) | > 2 | –
5 | O=C(c1ccc(OCCN2CC(CF)C2)cc1)c1c(-c2ccc(C(F)(F)F)cc2F)cnc2cc(O)ccc12 | – | 0.00216
6 | CCOC(COc1ccc(C(=O)c2c(-c3ccc(C(F)(F)F)cc3F)cnc3cc(O)ccc23)cc1)OCC | > 2 | –
7 | CCOC(COc1ccc(C(O)c2c(-c3ccc(C(F)(F)F)cc3F)cnc3cc(O)ccc23)cc1)OCC (stereo not shown) | > 2 | –
